Measurements taken from ChEMBL document CHEMBL5537113, “Discovery of 1,2-diaryl-3-oxopyrazolidin-4-carboxamides as a new class of MurA enzyme inhibitors and characterization of their antibacterial activity” (Eur J Med Chem, 2023).
Activity calls are given as the source filed them. The calls are words filed in the database; no cut-off is given here.

Experiments:
[1] = biological target: UDP-N-acetylglucosamine 1-carboxyvinyltransferase (Escherichia coli K-12, UniProt P0A749, C115D); assay: Inhibition of Escherichia coli MurA C115D mutant at 50 uM using UNAG as substrate pre incubated for 15 mins followed by substrate addition and measured after 15 mins by microplate reader analysis relative to control
[2] = biological target: UDP-N-acetylglucosamine 1-carboxyvinyltransferase (Escherichia coli K-12, UniProt P0A749); assay: Inhibition of Escherichia coli K12 His-tagged MurA expressed in Escherichia coli BL21 cells using UNAG as substrate pre incubated for 15 mins followed by substrate addition and measured after 15 mins by microplate reader analysis
[3] = Drug uptake in Escherichia coli harboring tolC deletion mutant assessed per 1.6x10^9 cells at 10 uM incubated for 30 mins by LC analysis; type: ADME; conditions: 0.5 h
[4] = biological target: UDP-N-acetylglucosamine 1-carboxyvinyltransferase (Escherichia coli K-12) (UniProt P0A749); assay: Inhibition of Escherichia coli K12 His-tagged MurA expressed in Escherichia coli BL21 cells at 50 uM using UNAG as substrate pre incubated for 15 mins followed by substrate addition and measured after 15 mins by microplate reader analysis relative to control; conditions: time 30.0 min
[5] = test system: Staphylococcus aureus; assay: Antibacterial activity against Staphylococcus aureus Newman D2C NCTC 10833 assessed as reduction in microbial growth incubated for 16 hrs by serial dilution method; type: functional
[6] = test system: Escherichia coli; assay: Antibacterial activity against Escherichia coli harboring tolC deletion mutant assessed as reduction in microbial growth incubated for 16 hrs by serial dilution method; type: functional
[7] = test system: UDP-N-acetylglucosamine 1-carboxyvinyltransferase (Escherichia coli K-12), P0A749 [C115D]; assay: Inhibition of Escherichia coli MurA C115D mutant using UNAG as substrate pre incubated for 15 mins followed by substrate addition and measured after 15 mins by microplate reader analysis; conditions: time 30.0 min
[8] = Drug uptake in Escherichia coli harboring tolC deletion mutant at 10 uM incubated for 30 mins by LC analysis; type: ADME; conditions: 0.5 h
[9] = test system: Bacteria; assay: Binding affinity to wild type U15-N labelled MurA (unknown origin) expressed in Escherichia coli at 200 uM using UNAG as substrate incubated for 90 to 150 mins by 15N-1H-HSQC NMR analysis; conditions: time 90-150 min
[10] = test system: Bacteroides fragilis; assay: Antibacterial activity against Bacteroides fragilis HM 20 assessed as reduction in microbial growth incubated for 48 hrs by broth microdilution method; type: functional
[11] = test system: Clostridioides difficile; assay: Antibacterial activity against Clostridioides difficile NR-49277 assessed as reduction in microbial growth incubated for 48 hrs by broth microdilution method; type: functional
[12] = test system: Clostridioides difficile; assay: Antibacterial activity against Clostridioides difficile NR-49294 assessed as reduction in microbial growth incubated for 48 hrs by broth microdilution method; type: functional
[13] = test system: Clostridioides difficile; assay: Bactericidal activity against Clostridioides difficile NR-49284 assessed as reduction in microbial growth by broth microdilution method; type: functional
[14] = test system: Clostridioides difficile; assay: Antibacterial activity against Clostridioides difficile ATCC 43255 assessed as reduction in microbial growth incubated for 48 hrs by broth microdilution method; type: functional
[15] = test system: Clostridioides difficile; assay: Antibacterial activity against Clostridioides difficile ATCC BAA1870 assessed as reduction in microbial growth incubated for 48 hrs by broth microdilution method; type: functional
[16] = test system: Clostridioides difficile; assay: Bactericidal activity against Clostridioides difficile NR-32895 assessed as reduction in microbial growth by broth microdilution method; type: functional
[17] = test system: Clostridioides difficile; assay: Antibacterial activity against Clostridioides difficile NR-49278 assessed as reduction in microbial growth incubated for 48 hrs by broth microdilution method; type: functional
[18] = test system: Bacteroides fragilis; assay: Antibacterial activity against Bacteroides fragilis HM 719 assessed as reduction in microbial growth incubated for 48 hrs by broth microdilution method; type: functional
[19] = test system: Bacteroides fragilis; assay: Antibacterial activity against Bacteroides fragilis HM 709 assessed as reduction in microbial growth incubated for 48 hrs by broth microdilution method; type: functional
[20] = test system: Clostridioides difficile; assay: Antibacterial activity against Clostridioides difficile NR-49291 assessed as reduction in microbial growth incubated for 48 hrs by broth microdilution method; type: functional
[21] = test system: Clostridioides difficile; assay: Antibacterial activity against Clostridioides difficile NR-49283 assessed as reduction in microbial growth incubated for 48 hrs by broth microdilution method; type: functional
[22] = test system: Lactobacillus crispatus; assay: Antibacterial activity against Lactobacillus crispatus HM 103 assessed as reduction in microbial growth incubated for 48 hrs by broth microdilution method; type: functional
[23] = test system: Bacteroides fragilis; assay: Antibacterial activity against Bacteroides fragilis HM 718 assessed as reduction in microbial growth incubated for 48 hrs by broth microdilution method; type: functional
[24] = test system: Lactobacillus gasseri; assay: Antibacterial activity against Lactobacillus gasseri HM 403 assessed as reduction in microbial growth incubated for 48 hrs by broth microdilution method; type: functional
[25] = test system: Clostridioides difficile; assay: Antibacterial activity against Clostridioides difficile NR-32889 assessed as reduction in microbial growth incubated for 48 hrs by broth microdilution method; type: functional
[26] = test system: Clostridioides difficile; assay: Antibacterial activity against Clostridioides difficile HM-88 assessed as reduction in microbial growth incubated for 48 hrs by broth microdilution method; type: functional
[27] = test system: Clostridioides difficile; assay: Antibacterial activity against Clostridioides difficile NR-49288 assessed as reduction in microbial growth incubated for 48 hrs by broth microdilution method; type: functional
[28] = test system: Clostridioides difficile; assay: Antibacterial activity against Clostridioides difficile NR-49282 assessed as reduction in microbial growth incubated for 48 hrs by broth microdilution method; type: functional
[29] = test system: Clostridioides difficile; assay: Antibacterial activity against Clostridioides difficile NR-49287 assessed as reduction in microbial growth incubated for 48 hrs by broth microdilution method; type: functional
[30] = test system: Clostridioides difficile; assay: Antibacterial activity against Clostridioides difficile NR-49286 assessed as reduction in microbial growth incubated for 48 hrs by broth microdilution method; type: functional
[31] = test system: Clostridioides difficile; assay: Antibacterial activity against Clostridioides difficile NR-49284 assessed as reduction in microbial growth incubated for 48 hrs by broth microdilution method; type: functional
[32] = test system: Staphylococcus aureus; assay: Antibacterial activity against vancomycin resistant Staphylococcus aureus 10 assessed as reduction in microbial growth by CLSI based broth microdilution method; type: functional
[33] = test system: Clostridioides difficile; assay: Antibacterial activity against Clostridioides difficile NR-49279 assessed as reduction in microbial growth incubated for 48 hrs by broth microdilution method; type: functional
[34] = test system: Bifidobacterium angulatum; assay: Antibacterial activity against Bifidobacterium angulatum HM 1189 assessed as reduction in microbial growth incubated for 48 hrs by broth microdilution method; type: functional
[35] = test system: Clostridioides difficile; assay: Bactericidal activity against Clostridioides difficile NR-49278 assessed as reduction in microbial growth by broth microdilution method; type: functional
[36] = test system: Bifidobacterium breve; assay: Antibacterial activity against Bifidobacterium breve HM1120 assessed as reduction in microbial growth incubated for 48 hrs by broth microdilution method; type: functional
[37] = test system: Clostridioides difficile; assay: Antibacterial activity against Clostridioides difficile NR-13436 assessed as reduction in microbial growth incubated for 48 hrs by broth microdilution method; type: functional
[38] = test system: Bifidobacterium longum; assay: Antibacterial activity against Bifidobacterium longum HM 846 assessed as reduction in microbial growth incubated for 48 hrs by broth microdilution method; type: functional
[39] = test system: Clostridioides difficile; assay: Antibacterial activity against Clostridioides difficile NR-32895 assessed as reduction in microbial growth incubated for 48 hrs by broth microdilution method; type: functional
[40] = test system: Clostridioides difficile; assay: Bactericidal activity against Clostridioides difficile NR-32904 assessed as reduction in microbial growth by broth microdilution method; type: functional
[41] = test system: Clostridioides difficile; assay: Antibacterial activity against Clostridioides difficile NR-32904 assessed as reduction in microbial growth incubated for 48 hrs by broth microdilution method; type: functional
[42] = test system: Bifidobacterium breve; assay: Antibacterial activity against Bifidobacterium breve HM 412 assessed as reduction in microbial growth incubated for 48 hrs by broth microdilution method; type: functional
[43] = test system: Clostridioides difficile; assay: Antibacterial activity against Clostridioides difficile NR-32903 assessed as reduction in microbial growth incubated for 48 hrs by broth microdilution method; type: functional
[44] = test system: Lactobacillus crispatus; assay: Antibacterial activity against Lactobacillus crispatus HM 420 assessed as reduction in microbial growth incubated for 48 hrs by broth microdilution method; type: functional
[45] = test system: Lactobacillus gasseri; assay: Antibacterial activity against Lactobacillus gasseri HM 407 assessed as reduction in microbial growth incubated for 48 hrs by broth microdilution method; type: functional
[46] = test system: Clostridioides difficile; assay: Bactericidal activity against Clostridioides difficile ATCC 43255 assessed as reduction in microbial growth by broth microdilution method; type: functional
[47] = test system: Streptococcus pneumoniae; assay: Antibacterial activity against Streptococcus pneumoniae ATCC 700677 assessed as reduction in microbial growth by CLSI based broth microdilution method; type: functional
[48] = test system: Clostridioides difficile; assay: Antibacterial activity against Clostridioides difficile NR-49285 assessed as reduction in microbial growth incubated for 48 hrs by broth microdilution method; type: functional
[49] = test system: Clostridioides difficile; assay: Antibacterial activity against Clostridioides difficile NR-13427 assessed as reduction in microbial growth incubated for 48 hrs by broth microdilution method; type: functional
[50] = test system: Clostridioides difficile; assay: Bactericidal activity against Clostridioides difficile ATCC BAA1870 assessed as reduction in microbial growth by broth microdilution method; type: functional

Chain of UDP-N-acetylglucosamine 1-carboxyvinyltransferase (Escherichia coli K-12) (P0A749 whole entry): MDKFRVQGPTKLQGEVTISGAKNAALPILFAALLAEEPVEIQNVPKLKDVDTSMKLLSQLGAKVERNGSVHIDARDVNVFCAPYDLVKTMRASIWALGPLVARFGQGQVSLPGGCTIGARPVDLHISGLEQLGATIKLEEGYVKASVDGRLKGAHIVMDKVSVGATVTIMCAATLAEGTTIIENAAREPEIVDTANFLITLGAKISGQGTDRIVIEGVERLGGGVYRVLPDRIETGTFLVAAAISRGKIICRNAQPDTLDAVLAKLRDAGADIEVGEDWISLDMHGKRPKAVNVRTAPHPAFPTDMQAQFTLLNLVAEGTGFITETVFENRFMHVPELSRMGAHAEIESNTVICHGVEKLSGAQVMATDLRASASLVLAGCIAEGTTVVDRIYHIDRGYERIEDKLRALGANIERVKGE
Chain of UDP-N-acetylglucosamine 1-carboxyvinyltransferase (Escherichia coli K-12, UniProt P0A749) (P0A749 whole entry): as above
Chain of UDP-N-acetylglucosamine 1-carboxyvinyltransferase (Escherichia coli K-12), P0A749 [C115D] (P0A749 whole entry C115D): as the sequence (P0A749 whole entry) above, with C115D counted along it
Chain of UDP-N-acetylglucosamine 1-carboxyvinyltransferase (Escherichia coli K-12, UniProt P0A749, C115D) (P0A749 whole entry C115D): as the sequence (P0A749 whole entry) above, with C115D counted along it

SMILES: O=C1NC(=O)c2cc(NC(=O)C3CN(c4cccc(Cl)c4)N(c4cccc(Cl)c4)C3=O)ccc21 (stereo not given)
- IC50 [1]: 12.7 µM
- IC50 [2]: 11.3 µM
- Drug uptake [3]: 30 µM
- inhibition [4]: 81.6%
- MIC [5]: > 40 µM
- MIC [6]: 17 µM
- inhibition [7]: 74%
- Drug uptake [8]: 924 nM
- Activity [9]: Active

SMILES: CN[C@H](CC(C)C)C(=O)N[C@H]1C(=O)N[C@@H](CC(N)=O)C(=O)N[C@H]2C(=O)N[C@H]3C(=O)N[C@H](C(=O)N[C@H](C(=O)O)c4cc(O)cc(O)c4-c4cc3ccc4O)[C@H](O)c3ccc(c(Cl)c3)Oc3cc2cc(c3O[C@@H]2O[C@H](CO)[C@@H](O)[C@H](O)[C@H]2O[C@H]2C[C@](C)(N)[C@H](O)[C@H](C)O2)Oc2ccc(cc2Cl)[C@H]1O [VANCOMYCIN]
- MIC [10]: 64 µg/mL
- MIC [11]: 0.5 µg/mL
- MIC [12]: 0.25 µg/mL
- MBC [13]: 0.5 µg/mL
- MIC [14]: 0.5 µg/mL
- MIC [15]: 1 µg/mL
- MBC [16]: 2 µg/mL
- MIC [17]: 0.5 µg/mL
- MIC [18]: > 64 µg/mL
- MIC [19]: 64 µg/mL
- MIC [20]: 0.5 µg/mL
- MIC [21]: 0.5 µg/mL
- MIC [22]: 1 µg/mL
- MIC [23]: > 64 µg/mL
- MIC [24]: 2 µg/mL
- MIC [25]: 2 µg/mL
- MIC [26]: 0.5 µg/mL
- MIC [27]: 0.5 µg/mL
- MIC [28]: 0.25 µg/mL
- MIC [29]: 1 µg/mL
- MIC [30]: 0.25 µg/mL
- MIC [31]: 0.5 µg/mL
- MIC [32]: 32 µg/mL
- MIC [33]: 0.25 µg/mL
- MIC [34]: 1 µg/mL
- MBC [35]: 0.5 µg/mL
- MIC [36]: 1 µg/mL
- MIC [37]: 0.5 µg/mL
- MIC [38]: 0.5 µg/mL
- MIC [39]: 2 µg/mL
- MBC [40]: 0.5 µg/mL
- MIC [41]: 0.5 µg/mL
- MIC [42]: 1 µg/mL
- MIC [43]: 0.5 µg/mL
- MIC [44]: 1 µg/mL
- MIC [45]: 4 µg/mL
- MBC [46]: 1 µg/mL
- MIC [47]: 2 µg/mL
- MIC [48]: 0.5 µg/mL
- MIC [49]: 2 µg/mL
- MBC [50]: 2 µg/mL
